Results from US20190053492A1, “SUBSTITUTED PYRIDINE COMPOUNDS AS PESTICIDES” (Bayer CropScience Aktiengesellschaft, priority 2016, published 2019).

Experiments:
[1] = log P by HPLC on reversed-phase column (C 18), EEC Directive 79/831 Annex V.A8; type: physicochemical; conditions: 55° C.; for LOGP_HCOOH: log P (HCOOH)
Procedure: Temperature: 55° C. […] Called log P (HCOOH) in the table. […] Called log P (neutral) in the table.

Phaedon cochleariae = Phaedon cochleariae spray test; type: in vivo; conditions: after 7 days, Chinese cabbage leaf discs
How it was run: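 Larval kill read at day 7 as percent, where 100% means every larva dead and 0% none; larvae were placed on dried Brassica pekinensis leaf discs previously sprayed with the formulation (acetone/dimethylformamide solvent, alkylaryl polyglycol ether emulsifier, water).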

Spodoptera frugiperda = Spodoptera frugiperda spray test; type: in vivo; conditions: after 7 days, maize leaf discs
How it was run: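 Efficacy in % was scored at 7 days against armyworm caterpillars placed on dried, compound-sprayed Zea mays leaf discs. Compound was dissolved in acetone/dimethylformamide and diluted in water with 1000 ppm alkylaryl polyglycol ether. 100% means all caterpillars were killed.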

[2] = acidic range at pH 2.7, 0.1% aqueous formic acid and acetonitrile, HPLC on reversed-phase column (C 18)
[3] = log P, neutral range, HPLC on reversed-phase column (C 18)
[4] = acidic range pH 2.7, 0.1% aqueous formic acid and acetonitrile, reversed-phase column (C 18)
[5] = log P (neutral), HPLC reversed-phase column (C 18)

| LOGP_HCOOH [1, 2] | LOGP_NEUTRAL [1, 3] | LOGP_HCOOH [1, 4] | LOGP_NEUTRAL [1, 5] | SMILES | efficacy (beetle larvae killed) (Phaedon cochleariae; application rate 500 g/ha) | efficacy (caterpillars killed) (Spodoptera frugiperda; application rate 100 g/ha) | efficacy (caterpillars killed) (Spodoptera frugiperda; application rate 500 g/ha) | efficacy (beetle larvae killed) (Phaedon cochleariae; application rate 100 g/ha) |
| --- | --- | --- | --- | --- | --- | --- | --- | --- |
| 3.63 |  |  |  | C#CC1(NC(=O)c2cc(-c3ccc(OC(F)(F)F)cc3)cc(NC(=O)C3CC3)n2)CC1 [Example I-126] | 100% | 83% | 100% |  |
| 3.45 | 3.35 |  |  | NC(=S)c1ccc(CNC(=O)c2cc(-c3ccc(OC(F)(F)F)cc3)cc(NC(=O)C3CC3)n2)cc1 [Example I-214] |  | 100% | 100% | 83% |
|  | 4.29 | 4.34 |  | N#Cc1ccc(NC(=O)c2cc(-c3ccc(Cl)cc3)cc(NC(=O)C3CC3)n2)cc1 [Example I-022] | 100% | 100% | 100% | 83% |
|  | 3.33 | 3.42 |  | N#Cc1ccc(CNC(=O)c2cc(-c3ccc(OC(F)(F)F)cc3)cc(NC(=O)C3CC3)n2)nc1 [Example I-106] |  | 80% | 100% | 100% |
| 4.17 | 4.02 |  |  | CC(NC(=O)c1cc(-c2ccc(OC(F)(F)F)cc2)cc(NC(=O)C2CC2)n1)c1ccc(C#N)cc1 (racemic) [Example I-158] | 100% | 100% | 100% | 83% |
|  | 4.62 |  |  | N#Cc1ccc(CNC(=O)c2cc(-c3ccc(OC(F)(F)F)cc3)cc(NC(=O)C3(Cl)CC3)n2)cc1 [Example I-205] | 100% | 100% | 100% |  |
| 3.02 |  |  |  | CNC(=O)c1cc(-c2ccc(OC(F)(F)F)cc2)cc(NC(=O)C2CC2)n1 [Example I-127] | 100% | 83% | 100% |  |
|  | 4.08 | 4.23 |  | CC(C)C(=O)Nc1cc(-c2ccc(C(F)(F)F)cc2)cc(C(=O)NCc2cc(F)c(C#N)cc2F)n1 [Example I-071] | 83% | 100% | 100% |  |
|  |  | 3.75 | 3.73 | N#Cc1ccc(CNC(=O)c2cc(-c3ccc(Br)c(F)c3)cc(NC(=O)C3CC3)n2)cc1 [Example I-262] | 100% | 100% | 100% | 100% |
|  |  | 3.94 |  | O=C(NC1CC1)c1cc(-c2ccc(C(F)(F)C(F)(F)F)c(F)c2)cc(NC(=O)C2CC2)n1 [Example I-243] | 100% | 100% | 100% | 100% |
| 3.78 |  |  |  | CCCNC(=O)c1cc(-c2ccc(OC(F)(F)F)cc2)cc(NC(=O)C2CC2)n1 [Example I-132] | 100% | 100% | 100% |  |
|  | 3.72 | 3.79 |  | N#Cc1ccc(CNC(=O)c2cc(-c3ccc(SC(F)(F)F)cc3)cc(NC(=O)C3CC3)n2)cn1 [Example I-090] | 100% | 83% | 100% |  |
|  |  | 3.96 | 3.91 | CC(C)(CS(C)(=O)=O)NC(=O)c1cc(-c2ccc(C(F)(F)C(F)(F)F)c(F)c2)cc(NC(=O)C2CC2)n1 [Example I-253] | 100% | 100% | 100% | 100% |
